Results published in patent US5455226A, “EGF-containing pharmaceutical composition for the treatment of bronchopulmonary pathologies” (Synthelabo, priority 1991, dated 1995).
Several values for one entry are separate records, joined by “and”; a condition that tells them apart may be missing. Identical values can stand only once.

Key:
[1] = tested on: human respiratory epithelial cells (from nasal polyps); experiment: Dissociated respiratory epithelial cells cultured in a collagen lattice: cell number and morphology; format: cell-based
Protocol: (§1) Cultures of respiratory epithelial cells are obtained from nasal polyps by the technique of explants (growth of cells around the explant) and by the technique of dissociated cells cultured in a three-dimensional collagen matrix (collagen lattice).
(§2) The explants are cultured in the presence of varying concentrations (0, 5, 10 and 20 ng/ml) of EGF (EGF from mouse submaxillary glands, ref. E 4127, Sigma). The growth area around the explants is quantified after 3 and 4 days of culture. The percentage of growth area covered with ciliated cells as well as the ciliary beat frequency were measured after 3 days of culture. For the collagen lattice culture technique, the number of cells in culture was quantified up to 11 days after of culture, and this in the absence and in the presence of EGF (10 ng/ml).

[2] = tested on: human respiratory epithelial cells (from nasal polyps); experiment: Explant culture of respiratory epithelial cells: growth area around explants; format: cell-based; conditions: increasing EGF concentration up to 20 ng/ml; p<0.05
Protocol: as §1, §2

[3] = tested on: ciliated cells of human respiratory epithelium; experiment: Functional activity of ciliated cells in explant culture; format: cell-based; conditions: 20 ng/ml of EGF, after 3 days of culture
Protocol: as §1, §2

[4] = tested on: surface epithelial cells dissociated from nasal polyp; experiment: In vitro model of lesion of the respiratory epithelium: repair index; format: cell-based, human; conditions: for repair index: 10 ng/ml
Protocol: Surface epithelial cells dissociated from nasal polyp are cultured on a collagen I matrix in RPMI culture medium supplemented with hydrocortisone,retinoic acid, insulin and EGF (epidermal growth factor). After about 3 days of culture, when the cells have become confluent, the supplemented culture medium is replaced with unsupplemented RPMI medium. After incubating for 12 hours in the presence of unsupplemented medium, the culture is placed on the stage of an inverted microscope equipped with a micromanipulator. A microcapillary, guided by the micromanipulator, makes it possible to detach cells, thus creating a wound with a surface area of about 100,000 μm^2. The unsupplemented culture medium is then replaced with culture medium containing only EGF at different concentrations. Video recordings of the injured culture are then made every hour. Using these video recordings, an image analyser makes it possible to monitor the variation of the surface area of the wound as a function of time. A regression line between the surface area of the wound (expressed in μm^2) and the time (expressed in hours) makes it possible to calculate the slope of the regression line obtained, a slope which corresponds to the decrease in the surface area of the wound per unit of time. The latter parameter corresponds to the repair index (the higher the index, the faster the repair).
Eight nasal polyps were used to culture respiratory epithelial cells (5 culture dishes per polyp). In each of these dishes, the injured cultures are incubated either in the presence of unsupplemented culture medium, or in the presence of culture medium supplemented with EGF at various concentrations (5, 10, 20 or 50 ng/ml). From the variation of the surface area as a function of time (the repair index corresponds to the slope of the regression line between the surface area of the wound and time), we calculated the repair index. This index is then expressed relative to the repair index obtained with the EGF-free culture medium used as control. The results obtained show a systematic increase in the repair index for wounds in the presence of EGF. At a concentration of 5 and 10 ng/ml, EGF stimulates the repair by 38% and 36% respectively. At the concentration of 20 ng/ml, the stimulation is 49%.
This study was carried out under the same experimental conditions as above. The repair index for the wounds was quantified in the presence of unsupplemented culture medium and in the presence of culture medium supplemented either with EGF of mouse submaxillary gland (m-EGF: 10 ng/ml), or with recombinant human EGF (h-EGF: 10 ng/ml).

[5] = tested on: superficial respiratory epithelial cells; experiment: Retraction of the collagen lattice by respiratory epithelial cells; format: cell-based, human; conditions: after 8 days of culture in the presence of EGF
Protocol: (§3) The study of the repair of wounds of the respiratory epithelium was performed on an in vitro model. Thirty to 50 cells are detached from the culture by means of a micromanipulator so as to expose the collagen matrix on which the epithelial cells proliferate. The repair of this injured region is monitored as a function of time on cultures in the presence of EGF (10 ng/ml) or in the absence of EGF. For the technique of culture of dissociated cells in a collagen lattice, the effect of EGF on the retraction of the collagen lattice was studied after 8 days of culture. This retraction is quantified by measuring the area of the collagen lattice.

[6] = tested on: human respiratory epithelial cells in culture; experiment: In vitro model of respiratory epithelium wound repair (30 to 50 cells detached by micromanipulator); format: cell-based; conditions: EGF 10 ng/ml
Protocol: as §3

EGF: Epidermal Growth Factor polypeptide from mouse submaxillary glands, ref. E 4127, Sigma
number of cells ([1]; after 8 days of culture, in the presence of EGF vs without): twice as high | rate of cell proliferation ([1]; collagen lattice, EGF 10 ng/ml, compared with cultures without EGF): higher | formation of three-dimensional structures ([1]; collagen lattice, EGF in the culture medium): promotes the formation of tubular type three-dimensional structures | growth area around the explants [2]: substantial increase in the growth area | ciliary beat frequency [3]: 14.5 Hz | percentage of the growth surface covered with ciliated cells [3]: 43% | repair index [4]: 11215 μm^2 /h | stimulation of the repair (repair index relative to EGF-free control) ([4]; EGF 5 ng/ml): 38% | stimulation of the repair (repair index relative to EGF-free control) ([4]; EGF 10 ng/ml): 36% | stimulation of the repair (repair index relative to EGF-free control) ([4]; EGF 20 ng/ml): 49% and ~50% | repair index compared with the index obtained with 20 ng/ml of EGF ([4]; EGF 50 ng/ml, p<0.05): significantly (p<0.05) reduced | collagen lattice area [5]: 660 mm^2 | slope of the regression line (wound repair) [6]: -71.8

h-EGF: recombinant human EGF (Sigma, Ref. E-3264)
repair index [4]: 11492 μm^2 /h
